Source: patent US20040014729A1, “Use of estramustine phosphate in the treatment of bone metastasis” (priority 2003, published 2004)
“Also recorded” adds a separate entry of the source.

Columns and labels:
[1] = Effect of estramustine phosphate and clodronate on their mutual bioavailability (serum AUC0-24h, Cmax, serum estradiol) in patients
Method: Twelve male patients aged 62-80 were divided into two groups of six patients.
The first group of six patients were given 3200 mg daily of clodronate only for four days. On the fifth day the AUC0-24 h for the drug was calculated from serum concentrations of repeated blood samples. On the sixth day, 560 mg estramustine phosphate was add per oral to the clodronate treatment for the following four days. On day ten, the AUC0-24 h for both drugs was calculated.
The second group of six patients were give orally 560 mg daily of estramustine phosphate only for four days. On the fifth day the AUC0-24 h for the drug was calculated from serum concentrations of repeated blood samples. On the sixth day, 3200 mg clodronate was added to the estramustine phosphate treatment for the following four days. On day ten, the AUC0-24 h for both drugs was calculated.
The clodronate was provided as 400 mg capsules, and the estramustine phosphate used was estracyt in 140 mg capsules.
The method used in the analysis of the serum estramustine phosphate concentrations measures […] and is insensitive to any metabolites. The estradiol-related metabolites (estramustine and estradiol) were not analyized in connection with the bioanalysis. […] Unfortunately, estradiol was not measured after administration of estramustine phosphate alone.

mouse calvaria = experiment: Bone resorption assay, organ culture with 45Ca-prelabeled mouse calvaria (PTH-stimulated 45Ca release); type: cell-based; conditions: for bone resorption in vitro (in words): compound present during culture
Method: This example used the organ culture technique with mouse calvaria.
The organ culture technique was used with ^45Ca-prelabeled mouse calvaria. The method has been described by Lerner (1987) and Ljunggren et al. (1991). Newborn mice were injected subcutaneously with ^45CaCl (1.5 μCi/animal). After four days their calvaria were dissected, split into quarters and preincubated in phenol red free CMRL 1066 medium supplemented with 0.1% bovine serum albumin and 50 μg/ml gentamicin for 24 hours at 37° C. in a humidified atmosphere of 5% CO2 in air in the presence of indomethacin (1 μmol/l) and 10 nmol/l bovine parathyroid hormone (PTH). After washing the bone pieces, the medium was changed and cultures incubated for three more days in the same medium but without indomethacin in the presence or absence of estramustine phosphate or clodronate. Resorption was measured by assaying the ^45Ca liberated into the medium using a standard technique for liquid scintillation counting. Total ^45Ca was determined after hydrolysing the calvaria in 6 mol/l HCI overnight. Bone resorption was studied in various concentrations of estramustine phosphate and the effect of estramusine phosphate present only during the preincubation stage was checked in order to study its cytotoxcity.
Results are expressed as mean ±SEM, n=5 or 10. Inhibition percentage was calculated as follows [formula]

[2] = present only during preincubation, then washed away, concentration not given

SMILES	AUC0-24h and Cmax, alone versus concomitantly with the other drug (in words) ([1]; human, in vivo, po)	bioavailability when the other drug is added (in words) ([1]; human, in vivo, po)	AUC0-24h Clodronate ([1]; male, human, in vivo, 3200 mg) [ng·h/mL]	resorption, compound present only during preincubation (in words) (mouse calvaria; [2])	AUC0-24h and Cmax, alone versus concomitantly with the other drug (in words) ([1]; patients, oral)	bioavailability when the other drug is added (in words) ([1]; patients, oral)	resorption, compound present only during preincubation (in words) (mouse calvaria; 10 μmol/l)	resorption, compound present only during preincubation (in words) (mouse calvaria; 100 μmol/l)	observation in culture medium (mouse calvaria; Experiment 1, 1000 μmol/l)	bone resorption in vitro (in words) (mouse calvaria)	bone resorption in vitro (in words) (mouse calvaria; listed as estramustine phosphate sodium)
O=P(O)(O)C(Cl)(Cl)P(=O)(O)O [Clodronate, Disodium clodronate]	did not differ significantly	no effect	19300	also inhibits resorption	–	–	–	–	–	–	–
C[C@]12CC[C@@H]3c4ccc(OC(=O)N(CCCl)CCCl)cc4CC[C@H]3[C@@H]1CC[C@@H]2OP(=O)([O-])[O-].[Na+].[Na+] [Estramustine phosphate, Estramustine phosphate sodium]	–	–	–	PTH could not stimulate	differed statistically	almost doubled	slightly increased	strongly inhibited	(precipitate)	inhibited bone resorption in this in vitro model concentration-dependently and about as effectively as clodronate	dose-dependently inhibited; also recorded: inhibits bone resorption in vitro
